Consider six compounds from BindingDB's records for doi:10.1021/jm800555h (The Scripps Research Institute, 2008).

In general, Ki refers to a dissociation constant, usually derived from enzyme kinetics or from competition with a known ligand. A low value points to a stronger hold on the target.

In the first assay the target is Bifunctional purine biosynthesis protein ATIC (Homo sapiens, UniProt P31939). Put plainly: AICAR Tfase Inhibition Assay. The following applies: pH 7.4; 26 °C. From the text: Recombinant human AICAR Tfase was used in the inhibition assay. The reaction was monitored at 298 nm by measuring the increase in absorbance corresponding to the formation of THF. The THF was generated in the transfer reaction of the formyl group from cofactor to AICAR to produce 5-formyl-AICAR. Double reciprocal plots were used to determine the Ki values.
Sequence of Bifunctional purine biosynthesis protein ATIC (P31939 whole entry): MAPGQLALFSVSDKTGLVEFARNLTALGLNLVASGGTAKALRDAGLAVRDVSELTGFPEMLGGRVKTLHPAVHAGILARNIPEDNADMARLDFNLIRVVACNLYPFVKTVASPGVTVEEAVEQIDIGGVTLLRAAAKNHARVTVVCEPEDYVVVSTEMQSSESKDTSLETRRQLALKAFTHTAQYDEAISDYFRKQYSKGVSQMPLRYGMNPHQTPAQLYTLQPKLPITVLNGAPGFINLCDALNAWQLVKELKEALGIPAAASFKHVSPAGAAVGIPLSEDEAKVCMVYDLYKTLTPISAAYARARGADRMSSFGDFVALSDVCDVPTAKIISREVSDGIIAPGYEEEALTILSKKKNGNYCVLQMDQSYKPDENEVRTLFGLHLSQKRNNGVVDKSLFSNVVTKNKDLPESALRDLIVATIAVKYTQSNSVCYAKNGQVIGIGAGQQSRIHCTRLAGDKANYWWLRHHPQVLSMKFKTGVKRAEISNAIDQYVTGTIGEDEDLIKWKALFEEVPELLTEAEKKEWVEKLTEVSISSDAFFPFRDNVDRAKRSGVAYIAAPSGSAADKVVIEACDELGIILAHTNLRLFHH
Compound `Nc1nc(N)c(CCC[C@@H](O)c2ccc(C(=O)NC(CCC(=O)O)C(=O)O)cc2)c(=O)[nH]1` (stereo partly drawn) [2-({4-[(1R)-4-(2,4-diamino-6-oxo-1,6-dihydropyrimidin-5-yl)-1-hydroxybutyl]phenyl}formamido)pentanedioic acid] showed a Ki of more than 100 µM. `CO[C@H](CCCc1c(N)nc(N)[nH]c1=O)c1ccc(C(=O)NC(CCC(=O)O)C(=O)O)cc1` (stereo partly drawn) [2-({4-[(1R)-4-(2,4-diamino-6-oxo-1,6-dihydropyrimidin-5-yl)-1-methoxybutyl]phenyl}formamido)pentanedioic acid]: the Ki was more than 100 µM. Same read-out and setting: then `Nc1nc(N)c(CCC[C@H](O)c2ccc(C(=O)NC(CCC(=O)O)C(=O)O)cc2)c(=O)[nH]1` (stereo partly drawn) [2-({4-[(1S)-4-(2,4-diamino-6-oxo-1,6-dihydropyrimidin-5-yl)-1-hydroxybutyl]phenyl}formamido)pentanedioic acid], with more than 100 µM; and `CO[C@@H](CCCc1c(N)nc(N)[nH]c1=O)c1ccc(C(=O)NC(CCC(=O)O)C(=O)O)cc1` (stereo partly drawn) [2-({4-[(1S)-4-(2,4-diamino-6-oxo-1,6-dihydropyrimidin-5-yl)-1-methoxybutyl]phenyl}formamido)pentanedioic acid], with more than 100 µM; and `CS[C@H](CCCc1c(N)nc(N)[nH]c1=O)c1ccc(C(=O)NC(CCC(=O)O)C(=O)O)cc1` (some centres not stated) [10R (8)], with more than 100 µM. `CS[C@@H](CCCc1c(N)nc(N)[nH]c1=O)c1ccc(C(=O)NC(CCC(=O)O)C(=O)O)cc1` (some centres not stated) [10S (7)] registered a Ki of more than 100 µM.

The target of another assay is T1, Trifunctional purine biosynthetic protein adenosine-3 (Homo sapiens, UniProt P22102).
T1 sequence (P22102 whole entry): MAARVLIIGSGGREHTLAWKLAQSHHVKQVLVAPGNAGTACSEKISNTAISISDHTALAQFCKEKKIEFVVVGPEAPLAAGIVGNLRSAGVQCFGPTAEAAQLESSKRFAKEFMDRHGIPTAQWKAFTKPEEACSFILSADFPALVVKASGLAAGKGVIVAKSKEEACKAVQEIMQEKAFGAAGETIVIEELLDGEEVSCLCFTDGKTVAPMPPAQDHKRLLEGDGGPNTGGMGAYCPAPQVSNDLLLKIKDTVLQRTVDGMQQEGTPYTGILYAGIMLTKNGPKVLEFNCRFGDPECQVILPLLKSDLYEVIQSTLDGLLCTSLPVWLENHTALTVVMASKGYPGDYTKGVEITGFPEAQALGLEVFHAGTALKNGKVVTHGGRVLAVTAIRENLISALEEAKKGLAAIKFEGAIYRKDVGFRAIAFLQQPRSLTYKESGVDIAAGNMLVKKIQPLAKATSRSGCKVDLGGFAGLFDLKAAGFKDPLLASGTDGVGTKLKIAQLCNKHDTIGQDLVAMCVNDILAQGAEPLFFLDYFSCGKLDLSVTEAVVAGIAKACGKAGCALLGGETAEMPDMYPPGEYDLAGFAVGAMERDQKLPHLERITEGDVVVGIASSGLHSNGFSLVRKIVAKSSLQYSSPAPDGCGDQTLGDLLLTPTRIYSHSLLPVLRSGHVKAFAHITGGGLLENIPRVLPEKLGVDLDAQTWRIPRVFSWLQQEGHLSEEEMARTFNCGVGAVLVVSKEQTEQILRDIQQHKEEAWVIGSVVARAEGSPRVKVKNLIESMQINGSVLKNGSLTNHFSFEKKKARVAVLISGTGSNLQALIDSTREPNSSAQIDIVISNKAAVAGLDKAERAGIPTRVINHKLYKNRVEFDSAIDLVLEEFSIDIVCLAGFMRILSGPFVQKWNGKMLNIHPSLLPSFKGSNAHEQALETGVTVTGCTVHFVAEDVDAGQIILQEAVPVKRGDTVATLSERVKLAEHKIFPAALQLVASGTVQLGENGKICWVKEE
Put plainly: GAR Tfase Activity Assay. The following applies: pH 7.5; 26 °C.
The compound `Nc1nc(N)c(CCC[C@@H](O)c2ccc(C(=O)NC(CCC(=O)O)C(=O)O)cc2)c(=O)[nH]1` (stereo partly drawn) [2-({4-[(1R)-4-(2,4-diamino-6-oxo-1,6-dihydropyrimidin-5-yl)-1-hydroxybutyl]phenyl}formamido)pentanedioic acid] gave a Ki of 1.1 µM.
